{"source": "patent US6780418B1", "about": "“Reagents and immunoassay for the detection and quantitative determination of mycothiol and precursors thereof” (The Regents of the University of California, priority 1997, dated 2004)", "key": {"[1]": {"system": "anti-mycothiol antibody", "test": "ELISA of Example 4: thiol bound to maleimide-activated BSA, detected with affinity-purified anti-MSH antibody", "assay_type": "binding, rabbit", "conditions": "for ELISA result (recognition by the anti-mycothiol antibody): thiol at the 10 pmol level", "experimental": "Known amounts of pure MSH (typically from 0 to 1 pmol/well) were reacted with maleimide-activated BSA (Pierce); maleimide activation levels were 16-19 mol maleimide per mol BSA. The maleimide-activated BSA was reconstituted to 10 mg/ml and this stock solution stored at −70° C. until needed. The stock solution was diluted to a working concentration of 5 ng/μl just before use and kept chilled on ice. MSH from the concentrated stock solution in 0.1% TFA was diluted into TBS (Tris-buffered saline: 0.1 M Tris, pH 7.3, 0.15 M NaCl, 0.04% NaN3) on ice and the diluted samples (40 μl per well) immediately added to the maleimide-activated BSA (60 μl per well). A “zero” standard consisted of TBS in place of an MSH solution. In practice, 168 μl of thiol standard were added to 252 μl of maleimide-activated BSA solution. Samples of unknown thiol content were reacted with maleimide-activated BSA in the same manner, providing a small excess volume for pipetting of quadruplicate samples of 100 μl per well. After 2-hour incubation at room temperature, the thiol-BSA samples were aliquoted (100 μl per well) into Immulon-4 microplate wells and allowed to bind overnight at 4° C. Unbound protein was removed by gentle aspiration with mild vacuum and the wells blocked for 2 hours at room temperature with 1% v/v fish-skin gelatin in TBS. The wells were drained, washed once with TBST (TBS plus 0.05% Tween-20), and drained. Washes involved filling wells to the top with wash buffer followed by gentle aspiration to drain the wells. Primary antibody (affinity-purified anti-MSH, 100 μl per well) was added and the plate incubated for 4 hours at room temperature. The wells were drained, washed twice with TBST, and drained. Secondary antibody (goat anti-rabbit [whole IgG] F(ab′)2 fragments conjugated to bovine intestinal alkaline phosphatase, 100 μl per well) was added and the plate incubated for 1 hour at room temperature. The wells were drained, washed twice with TBST, twice with TBS, and drained. The alkaline phosphatase substrate (3.8 mM p-nitrophenylphosphate in 0.2 M Tris, pH 9.8, 200 μl per well) was added and the plate incubated 30 minutes at room temperature. The reaction was quenched by addition of 50 μl per well stop solution (4 N NaOH). The plate was read at 405 nm on a microplate reader (Model EL311, Bio-Tek Instruments) that was programmed to automatically subtract blank values read from wells that received only the blocking agent, wash solutions, p-nitrophenyl phosphate, and stop solution.\nSince reaction of typical cellular constituents with maleimide-BSA is largely limited to thiols, it was considered important to ascertain whether any typical biological thiols would produce false-positive assay results.\nIn order to test whether the anti-mycothiol antibody recognizes component parts of the mycothiol molecule we also tested the ELISA on N-acetyl-L-cysteine, L-cysteinyl-glucosamine, (2-L-cysteinyl)amido-2-deoxy-α-D-glucopyranose), and N-acetyl-L-cysteinyl-glucosamine (2-N-acetyl-L-cysteinyl)amido-2-deoxy-α-D-glucopyranose)."}, "[2]": {"system": "M. smegmatis mc^2155", "test": "Effect of nutrient supplementation upon mycothiol intermediate levels and growth", "assay_type": "cell-based, Mycobacterium smegmatis", "experimental": "To test whether an increase in cellular Ins content would influence the levels of MSH or potential MSH intermediates, we examined M. smegmatis mc^2155 incubated with Ins. We initially tested Ins uptake by adding 37 μM ^14C-inositol to a culture at A600=1.0 and determining the loss of radiolabel from the medium and its appearance in cells. After 2.5 h, 77% of the counts had been lost from the medium to the cells, showing that M. smegmatis efficiently imports inositol. Next we harvested cells after growth to mid log phase, resuspended them at A600=1.05 in Middlebrook 7H9 media with glucose and 1 MM Ins at 37° C., and took samples for analysis at 0, 0.5 and 2.5 h (FIG. 17A).\nTo test whether changes in cellular Cys levels would influence MSH or MSH intermediates, we incubated cells in medium containing 10 mM AcCys. Since AcCys is readily taken up by passive diffusion we expected this to produce markedly elevated levels of cellular AcCys and, through deacylation, Cys. […] The Cys-GlcN-Ins content was elevated 20-fold over normal immediately after the start of incubation but then fell a factor of 70 over the next 2.5 h. Least affected was the MSH content which was elevated ˜40% after 2.5 h."}, "[3]": {"biological_target": "ATP-dependent ligase activity (Mycolicibacterium smegmatis, UniProt A0QZY0)", "sequence (A0QZY0 whole entry)": "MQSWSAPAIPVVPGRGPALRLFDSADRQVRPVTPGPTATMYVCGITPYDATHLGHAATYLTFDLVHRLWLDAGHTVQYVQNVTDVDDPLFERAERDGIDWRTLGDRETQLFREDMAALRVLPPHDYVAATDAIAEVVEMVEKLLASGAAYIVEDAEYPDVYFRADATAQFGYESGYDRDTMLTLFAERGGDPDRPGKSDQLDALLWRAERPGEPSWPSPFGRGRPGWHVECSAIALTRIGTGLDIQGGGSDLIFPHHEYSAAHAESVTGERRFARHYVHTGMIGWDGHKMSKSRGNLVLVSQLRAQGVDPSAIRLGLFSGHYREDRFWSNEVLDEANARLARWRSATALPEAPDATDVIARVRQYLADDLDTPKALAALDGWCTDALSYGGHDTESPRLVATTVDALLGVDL", "test": "Assay of ATP-dependent ligase activity with GlcN-Ins plus Cys/AcCys in cell extract supernatant", "assay_type": "biochemical, M. smegmatis", "conditions": "for MSH content / Cys-GlcN-Ins concentration: 100 μM substrate, 50 μM GlcN-Ins, 1 mM ATP; for Cys-GlcN-Ins concentration: pH 7.5, 60 min"}, "[4]": {"assay_type": "physicochemical", "experimental": "The crude extract was purified by reversed-phase HPLC on a preparative C 18 column, 25 mm×250 mm (Vydac) by isocratic elution with 0.1% trifluoracetic acid (TFA) in ultrapure water at a flow rate of 10 ml/min. Under these conditions MSH eluted as the free thiol at 8 minutes and as its disulfide (MSSM) at 12 minutes. Thiol concentration was determined by titration with DTNB. Purified MSH was stored as a concentrated (0.11 M) stock solution in 0.1% TFA (aqueous), frozen at −70° C.\nTo produce biotinylated MSH suitable for use as a standard, the following procedure was carried out: 5.0 μL of 3.7 mM pure MSH in 0.1% TFA was added to 12.3 μL 1.5 mM MPB in DMSO/acetonitrile/100 mM phosphate buffer, pH 7.0 (1:4:5). The mixture was allowed to react 1 hour at room temperature. To determine the extent of biotinylation, unreacted MSH was measured by titration with DTNB. The standard was stored in 1.0 μL aliquots frozen at −70° C. For use in ELISA analyses, the standard was diluted to a concentration of 1.0 μM in Tris-buffered saline, pH 7.3, containing 0.04% w/v sodium azide, 0.05% v/v Tween 20 and 0.1% w/v BSA (TBSTB); this solution was stable for several (>6) months when stored refrigerated as indicated by consistency of ELISA measurements."}}, "data": [{"compound": "N[C@@H](CCC(=O)N[C@@H](CS)C(=O)NCC(=O)O)C(=O)O", "note": "[glutathione, reference compound]", "values": [{"measurement": "ELISA result (recognition by the anti-mycothiol antibody)", "setting": "[1]", "value": "negative"}]}, {"compound": "O[C@H]1[C@H](O)[C@@H](O)[C@H](O)[C@@H](O)[C@H]1O", "note": "[Ins, myo-inositol]", "values": [{"measurement": "MSH and H2S levels", "setting": "[2]; 1 mM Ins, 37° C., 0 to 2.5 h", "value": "did not change to a significant extent"}, {"measurement": "GlcN-Ins content relative to normal", "setting": "[2]; 1 mM Ins, 37° C., at 0.5 h", "value": "about half normal"}, {"measurement": "GlcN-Ins content relative to normal", "setting": "[2]; 1 mM Ins, 37° C., at 2.5 h", "value": "returning to normal"}, {"measurement": "GlcN-Ins content relative to normal", "setting": "[2]; 1 mM Ins, 37° C., initially (0 h)", "value": "more than 3 fold"}, {"measurement": "increase of A600 value", "setting": "[2]; 1 mM Ins, over the 2.5 h incubation", "value": 40, "unit": "%"}]}, {"compound": "CC(C)(CO)[C@@H](O)C(=O)NCCC(=O)NCCS", "note": "[pantetheine, reference compound]", "values": [{"measurement": "ELISA result (recognition by the anti-mycothiol antibody)", "setting": "[1]", "value": "negative"}]}, {"compound": "CC(C)(COP(=O)(O)OP(=O)(O)OC[C@H]1O[C@@H](n2cnc3c(N)ncnc32)[C@H](O)[C@@H]1OP(=O)(O)O)[C@@H](O)C(=O)NCCC(=O)NCCS", "note": "[coenzyme A, reference compound]", "values": [{"measurement": "ELISA result (recognition by the anti-mycothiol antibody)", "setting": "[1]", "value": "negative"}]}, {"compound": "CC(=O)N[C@@H](CS)C(=O)O", "note": "[AcCys, N-acetyl-cysteine]", "values": [{"measurement": "ELISA result (recognition by the anti-mycothiol antibody)", "setting": "[1]", "value": "negative"}, {"measurement": "[Cys]/[AcCys]", "setting": "[3]; 100 μM AcCys, by 60 min", "value": "~3"}, {"measurement": "MSH content", "setting": "[3]; 60 min", "value": 15, "unit": "µM"}, {"measurement": "Cys-GlcN-Ins concentration", "setting": "[3]", "value": 20, "unit": "µM"}, {"measurement": "effect on growth", "setting": "[2]; 10 mM AcCys, 2.5 h", "value": "significantly inhibits growth"}, {"measurement": "MSH content elevated", "setting": "[2]; 10 mM AcCys, after 2.5 h", "value": "~40", "unit": "%"}, {"measurement": "Cys-GlcN-Ins content elevated over normal", "setting": "[2]; 10 mM AcCys, immediately after the start of incubation", "value": 20, "unit": "fold"}, {"measurement": "change of A600 value", "setting": "[2]; 10 mM AcCys, over the 2.5 h incubation period", "value": 5, "unit": "%"}, {"measurement": "fall of Cys-GlcN-Ins content (factor)", "setting": "[2]; 10 mM AcCys, over the next 2.5 h", "value": 70}, {"measurement": "Cys level increased", "setting": "[2]; medium containing 10 mM AcCys", "value": 50, "unit": "fold"}, {"measurement": "H2S level", "setting": "[2]; medium containing 10 mM AcCys", "value": "roughly doubled"}, {"measurement": "cellular AcCys level elevated over the normal level", "setting": "[2]; medium containing 10 mM AcCys", "value": 1000, "unit": "fold"}, {"measurement": "decrease in GlcN-Ins content", "setting": "[2]; medium containing 10 mM AcCys", "value": "5- to 10 fold"}]}, {"compound": "N[C@@H](CS)C(=O)N[C@@H]1[C@@H](O)[C@H](O)[C@@H](CO)O[C@@H]1O", "note": "[Cys-GlcN, 2-(L-cysteinyl)amido-2-deoxy-α-D-glucopyranoside]", "values": [{"measurement": "ELISA result (recognition by the anti-mycothiol antibody)", "setting": "[1]", "value": "negative"}]}, {"compound": "CC(=O)N[C@@H](CS)C(=O)N[C@H]1[C@@H](OC2[C@H](O)[C@H](O)C(O)[C@H](O)[C@H]2O)O[C@H](CO)[C@@H](O)[C@@H]1O", "note": "(stereo partly drawn) [MSH, 1-D-myo-inosityl-2-(N-acetyl-L-cysteinyl)amido-2-deoxy-α-D-glucopyranoside]", "values": [{"measurement": "stability on storage", "setting": "[4]", "value": "stable as the free thiol for many months"}]}, {"compound": "CC(=O)N[C@@H](CS)C(=O)N[C@@H]1[C@@H](O)[C@H](O)[C@@H](CO)O[C@@H]1O", "note": "[AcCys-GlcN, 2-(N-acetyl-L-cysteinyl)amido-2-deoxy-α-d-glucopyranoside]", "values": [{"measurement": "sensitivity of the assay relative to that for MSH", "setting": "[1]; of that for MSH", "value": "about 4%"}, {"measurement": "ELISA result (recognition by the anti-mycothiol antibody)", "setting": "[1]", "value": "positive"}]}, {"compound": "^14C-inositol [reference compound]", "values": [{"measurement": "counts lost from the medium to the cells (uptake)", "setting": "[2]; 37 μM, culture at A600=1.0, after 2.5 h", "value": 77, "unit": "%"}]}, {"compound": "N[C@@H](CS)C(=O)O", "note": "[Cys, L-cysteine]", "values": [{"measurement": "ELISA result (recognition by the anti-mycothiol antibody)", "setting": "[1]", "value": "negative"}, {"measurement": "MSH content", "setting": "[3]; 0 min", "value": 15, "unit": "µM"}, {"measurement": "MSH content", "setting": "[3]; 60 min", "value": 13, "unit": "µM"}, {"measurement": "Cys-GlcN-Ins concentration", "setting": "[3]", "value": 26, "unit": "µM"}]}]}
